The subject of data set [1] is seizure activity on the EEG. Conditions: dog, in vivo.
In data set [2] the test system is EEG amplitude in anesthetized dogs. To be noted: dog, in vivo.

Regarding `C1CCc2nnnn2CC1` [pentylenetetrazole], in data set [1], the “cumulative dose at which seizure activity was observed” value was in the range of 11 to 41 mg/kg and the “dogs with seizure activity after pentylenetetrazole” value was “Seizure activity was observed in all the dogs”. Also, in data set [2], the “EEG amplitude, left hemisphere (occipital frontal leads)” value is 35.6 ± 8.0 μV; the “EEG amplitude, right hemisphere (occipital frontal leads)” value turned out to be 31.5 ± 8.0 μV; the “increase in EEG amplitude” value was 344%.

For the origin of these results see patent US5466700A (priority 1993, dated 1995).
